From US11890295B2, “Helicobacter pylori eradication method including step for orally administering composition including complex of non-absorbable antibiotic and clay mineral to subject” (KOREA INSTITUTE OF GEOSCIENCE AND MINERAL RESOURCES, priority 2018, dated 2024)

Assays:
[1] = system: Clarithromycin-resistant Helicobacter pylori bacteria; assay: in vitro eradication activity on resistant strain, disk on medium; type: cell-based; settings: twice repeated tests
Text: Clarithromycin-resistant Helicobacter pylori bacteria were applied on a medium (red), and a sample was made in the form of a disk and placed on the medium to measure an eradicating effect. At this time, if the red color disappeared around the disk, it means that there was the eradicating effect.

[2] = system: clarithromycin-resistant strain; assay: MIC of clarithromycin for the clarithromycin-resistant strain; type: cell-based; settings: Helicobacter pylori
[3] = system: H. pylori, 187 culture-positive clinical strains; assay: antibiotic resistant rate from in vitro MIC on clinical strains; type: cell-based, Helicobacter pylori; settings: based on MIC 1 μg/mL
Procedure: In virto MIC for non-absorbable antibiotic candidates (gentamicin, netilmicin, tobramycin, and amikacin) to be used as novel therapeutic agents was measured by making complexes with antibiotics (amoxicillin, clarithromycin, metronidazole, levofloxacin, and tetracyclin) that were actually used for Helicobacter eradicating treatment in clinical trials and smectite, and MIC50 and MIC90 were identified. For this end, 187 culture-positive clinical strains obtained from 1,265 patient specimens were used.

CC[C@H]1OC(=O)[C@H](C)[C@@H](O[C@H]2C[C@@](C)(OC)[C@@H](O)[C@H](C)O2)[C@H](C)[C@@H](O[C@@H]2O[C@H](C)C[C@H](N(C)C)[C@H]2O)[C@](C)(OC)C[C@@H](C)C(=O)[C@H](C)[C@@H](O)[C@]1(C)O [clarithromycin]
clear zone around disk (eradication activity) [1]: no clear zone
MIC [2]: 48 µg/mL

gentamicin
resistant rate of H. pylori [3]: 2.78%
